Assay results published in publication PMC3005895 (Journal of Nucleic Acids, 2010).

Experiments:
[1] = Cellular activity (data not shown); format: cell-based
E. coli SSB = tested on: T1, E. coli SSB; experiment: E. coli SSB binding assay (EMSA); details: for effect on EcSSB binding to ssDNA (result in words): EMSA, preincubation with SMI
T1 construct: purchased Enzymatics, Beverly, MA
Experimental: E. coli SSB Binding Assay These EMSAs were performed similarly to those for the RPA constructs, with the following exceptions. Reactions contained 25 nM of 5′-[^32P]-labeled 3Pc3 ssDNA and 3.3 nM (assuming homotetramer formation) SSB protein (Enzymatics, Beverly, MA). Reactions (20 μL) were carried out in 20 mM HEPES, pH 7.5, 1 mM DTT, 0.01% NP-40, 100 mM NaCl and resolved by 6% native polyacrylamide gel electrophoresis at 25 mA for 2 hours. Gels were dried and quantified via phosphorimager analysis as described above.

[2] = biological target: T2, full-length heterotrimeric RPA (Homo sapiens, UniProt P27694); design: method as in earlier work; details: prior observation; cited from earlier work
T2 construct: Human full-length, untagged heterotrimeric RPA (RPA) was purified as previously described; made in house
T2 sequence (P27694 whole entry): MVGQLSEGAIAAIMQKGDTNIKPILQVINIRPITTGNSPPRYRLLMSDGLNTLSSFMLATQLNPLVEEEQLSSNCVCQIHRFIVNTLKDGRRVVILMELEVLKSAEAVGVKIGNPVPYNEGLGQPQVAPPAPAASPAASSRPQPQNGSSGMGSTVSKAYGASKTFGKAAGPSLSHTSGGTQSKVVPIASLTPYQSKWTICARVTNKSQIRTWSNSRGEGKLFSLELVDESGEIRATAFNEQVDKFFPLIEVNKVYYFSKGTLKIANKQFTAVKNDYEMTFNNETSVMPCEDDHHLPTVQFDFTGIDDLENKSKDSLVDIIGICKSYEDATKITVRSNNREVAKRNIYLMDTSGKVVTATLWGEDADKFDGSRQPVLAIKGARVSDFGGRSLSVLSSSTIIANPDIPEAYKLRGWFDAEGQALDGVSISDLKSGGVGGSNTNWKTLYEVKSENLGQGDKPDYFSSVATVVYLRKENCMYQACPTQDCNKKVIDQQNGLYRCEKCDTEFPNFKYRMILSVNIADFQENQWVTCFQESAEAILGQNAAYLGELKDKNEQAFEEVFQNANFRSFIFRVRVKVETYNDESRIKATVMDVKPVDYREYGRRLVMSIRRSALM
T2 sequence (P15927 whole entry partner): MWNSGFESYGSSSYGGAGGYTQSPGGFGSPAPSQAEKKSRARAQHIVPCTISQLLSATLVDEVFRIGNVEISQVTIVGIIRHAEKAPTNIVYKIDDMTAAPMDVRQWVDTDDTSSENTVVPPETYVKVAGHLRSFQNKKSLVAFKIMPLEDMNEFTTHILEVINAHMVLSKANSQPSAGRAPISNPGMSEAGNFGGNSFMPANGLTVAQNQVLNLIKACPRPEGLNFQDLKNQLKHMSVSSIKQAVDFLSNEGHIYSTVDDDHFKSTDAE
T2 sequence (P35244 whole entry partner): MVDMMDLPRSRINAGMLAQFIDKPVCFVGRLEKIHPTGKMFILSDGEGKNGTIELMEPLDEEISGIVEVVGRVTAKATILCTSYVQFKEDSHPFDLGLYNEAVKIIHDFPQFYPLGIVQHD

RPA DBD-A/B [3] = biological target: T3, RPA DBD-A/B (Homo sapiens, UniProt P27694); experiment: Reversibility of inhibition: dialysis, then fluorescence polarization of DBD-A/B binding to F-dT12; details: preincubation 30 minutes, dialysis overnight, FP with F-dT12
T3 construct: we subcloned amino acids 181–432 of human RPA p70; inferred from pET15b vector and nickel-NTA purification) (N); made in house; host or cells: E. coli BL21(DE3)
T3 sequence (P27694 181-432): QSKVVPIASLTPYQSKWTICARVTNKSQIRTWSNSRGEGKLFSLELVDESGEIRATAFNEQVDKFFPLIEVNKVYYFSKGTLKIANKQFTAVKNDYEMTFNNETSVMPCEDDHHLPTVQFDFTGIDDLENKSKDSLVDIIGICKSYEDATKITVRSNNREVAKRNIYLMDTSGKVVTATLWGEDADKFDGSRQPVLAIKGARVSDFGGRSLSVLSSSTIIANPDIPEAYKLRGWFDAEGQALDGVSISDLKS
Experimental: Fluorescence polarization experiments were preformed as previously described in [23]. SMIs were diluted in H1 buffer (10 mM HEPES, pH 7.2, 1 mM DTT, 0.01% NP-40, and 100 mM NaCl), and the final DMSO concentration was kept below 1%.
(§1) To assess the reversibility of select SMIs, the indicated SMI was preincubated with RPA or the DBD-A/B construct for 30 minutes at room temperature. The resulting solution was dialyzed versus 500 mL H1 buffer at 4°C using 0.5 ml, 12,000 molecular weight cut-off dialysis cassettes (Pierce). The resulting protein was recovered and concentration determined by Bradford analysis. Analysis of DNA binding activity was performed either by EMSA or FP. In each series of experiments, there was no loss of DNA binding activity in vehicle control-treated protein.
Figure 3 Irreversible inhibition of RPA DBD-A/B-DNA-binding activity by CheSS19. (a) EMSA analysis of CheSS19 inhibition of RPA DBD-A/B. Assays were performed as described in the legend to Figure 2. […] (c) Quantification of the binding data presented in panels (a) and (b). (d) Fluorescence polarization analysis of CheSS19 inactivated RPA DBD-A/B. RPA DBD-A/B was preincubated with vehicle (1% DMSO) or CheSS19 (1 pmol in 1% DMSO) for 30 minutes at 37°C. […] The protein was recovered, and DNA-binding activity measured by FP analysis of binding to an F-dT12 substrate was performed as described in “Section 2”. […]

[4] = biological target: T2, full-length heterotrimeric RPA; experiment: Reversibility of inhibition: dialysis, then EMSA of full-length RPA; format: binding; details: dialysis overnight, EMSA with 34-base DNA
Experimental: (§2) RPA and DBD-A/B Binding EMSAs were performed as previously described in [16] using a purine rich ssDNA substrate (3Pc3). Briefly, reactions contained 12.5 nM 5′-[^32P]-labeled 3Pc3 ssDNA and the indicated concentrations of RPA or DBD-A/B. Protein was preincubated with the indicated concentration of SMI for 30 minutes at 37°C. DNA was then added and reactions incubated for additional 5 minutes at room temperature in a final reaction volume of 40 μL. Reactions were then resolved on a 6% native polyacrylamide gel and electrophoresed at 170 volts for 1 hour. Gels were dried and quantified via phosphorimager analysis and ImageQuant software (Molecular Dynamics).
as §1, with “In each series of experiments, there was no loss of DNA binding activity in vehicle control-treated protein.” left out
Figure 5 Irreversible inactivation of full-length heterotrimeric RPA by MCI13E. […] DNA binding activity of the resulting protein was assessed by EMSA using a 5′-[^32P]-ss 34-base DNA as described in “Section 2.” Lanes 1–4 predialysis, lanes 5 and 6 postdialysis.

RPA DBD-A/B [5] = biological target: T3, RPA DBD-A/B; experiment: EMSA of RPA DBD-A/B binding to ssDNA; details: for inhibition of DBD-A/B DNA binding (result in words): 25–200 μM inhibitor
Experimental: DBD-A/B The sequence encoding the RPA p70 DNA-binding domains A and B was subcloned from the hrRPA plasmid (provided by Dr. Marc Wold, University of Iowa) into the pET15b (Novagen) vector, and the protein was expressed in BL21(DE3) cells (Stratagene) as previously described in [9]. Briefly, cells were grown to an OD600 of 0.8, induced with 0.5 mM isopropyl-1-thio-β-D-galactopyranoside (IPTG) at 37°C for 2-3 hours. Small-scale DBD-A/B preparations were obtained from 1 L cultures, and, following induction, cells were harvested by centrifugation at 700 × g for 30 minutes at 4°C. The pellets were suspended in Buffer A (20 mM Tris, pH 7.5, 10% glycerol, 500 mM NaCl, 10 mM β-mercaptoethanol (BME), and 1 μg/mL phenylmethanesulfonyl fluoride (PMSF), leupeptin, and pepstatin) at 1 mL/gram of cells. The cells were lysed by sonication and insoluble material sedimented at 15,000 × g for 30 minutes at 4°C. The supernatant was then loaded onto a 10 mL phosphocellulose column, equilibrated with Buffer A, and the flow-through material collected. Imidazole was added to the flow-through to a final concentration of 5 mM, which was then loaded onto a 2 mL nickel-NTA-agarose column. The column was then washed with Buffer A containing 50 mM imidazole after which protein was eluted from the column using a gradient from 50–500 mM imidazole. Fractions were analyzed for protein content using Bradford and SDS-PAGE analysis in addition to assessment of DNA binding activity as determined by anisotropy. Fractions containing the DBD-A/B protein were pooled and dialyzed overnight in Buffer B (1 mM HEPES, pH 7.2, 10 mM dithiothreitol (DTT), 50 mM NaCl, and 1 μg/mL PMSF, pepstatin, and leupeptin) and aliquots stored at −80°C.
as §2

[6] = biological target: T2, full-length heterotrimeric RPA; experiment: EMSA of full-length heterotrimeric RPA binding to ssDNA; details: 3Pc3 ssDNA, three independent experiments, read-out: IC50 for inhibition of full-length heterotrimeric RPA
Experimental: RPA Human full-length, untagged heterotrimeric RPA (RPA) was purified as previously described in [17].
as §2

[7] = biological target: T2, full-length heterotrimeric RPA; details: highest concentration tested (100 μM); cited from earlier work
[8] = biological target: T4, Schizosaccharomyces pombe Pot1(DBD) (Schizosaccharomyces pombe, UniProt O13988); experiment: Schizosaccharomyces pombe Pot1(DBD) binding assay (EMSA); details: 15-mer ssDNA, three independent experiments, read-out: IC50 for inhibition of SpPot1(DBD) ssDNA binding
T4 construct: gift of Dr. Deborah Wuttke, University of Colorado, Boulder
T4 sequence (O13988 1-389): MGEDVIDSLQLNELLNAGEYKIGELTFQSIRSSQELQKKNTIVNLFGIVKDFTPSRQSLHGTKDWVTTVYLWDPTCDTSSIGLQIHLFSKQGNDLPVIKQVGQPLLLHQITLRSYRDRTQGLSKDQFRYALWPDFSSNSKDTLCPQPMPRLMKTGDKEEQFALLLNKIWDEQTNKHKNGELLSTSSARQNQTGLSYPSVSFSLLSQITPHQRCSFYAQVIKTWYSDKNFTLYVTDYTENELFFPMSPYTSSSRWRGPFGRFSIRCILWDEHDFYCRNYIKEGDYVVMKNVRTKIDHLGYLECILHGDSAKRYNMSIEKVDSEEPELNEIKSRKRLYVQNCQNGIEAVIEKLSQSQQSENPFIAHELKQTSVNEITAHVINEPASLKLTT
Experimental: Schizosaccharomyces pombe Pot1(DBD) Binding Assay EMSAs were performed as described above for EcSSB. Reactions contained 25 nM of 5′-[^32P]-labeled 15-mer ssDNA and 20 nM Pot1(DBD) protein (generously provided by Dr. Deborah Wuttke, University of Colorado, Boulder). Reactions (20 μL) were carried out in 20 mM HEPES, pH 7.5, 1 mM DTT, 0.01% NP-40, 100 mM NaCl, at room temperature, and resolved by 6% native polyacrylamide gel electrophoresis at 25 mA for 2 hours. Gels were dried and quantified via phosphorimager analysis as described above.

[9] = tested on: human lung cancer cell model; details: cited from earlier work
RPA DBD-A/B [10] = biological target: RPA DBD-A/B (human, UniProt P27694 181-432); experiment: EMSA; ~50% of DNA bound at 125 nM protein; data not shown; DNA 12.5 nM; RPA/DBD-A/B EMSA: 12.5 nM DNA, protein preincubated with inhibitor 30 min at 37 C, then DNA 5 min at room temp; FP: 20 nM DNA, inhibitor diluted in H1 buffer (1)
RPA DBD-A/B (human, UniProt P27694 181-432), sequence (P27694 181-432): as the sequence (P27694 181-432) above

Q: For `O=C1OC(=O)[C@H]2C3C=CC(CC3)[C@@H]12` [CheSS19], which cellular activity [1] is on record?
A: The cellular activity was “does not display any cellular activity”.

Q: What about the “effect on EcSSB binding to ssDNA (result in words)” value (“effect on EcSSB binding to ssDNA” for short) (E. coli SSB) of the same molecule?
A: Its value is “unaffected”.

Q: What about the “mode of inhibition of full-length RPA” value [2] of the same molecule?
A: The value was “irreversibly inhibited”.

Q: What about the “mode of inhibition of DBD-A/B after dialysis” value (RPA DBD-A/B [3]) of the same molecule?
A: Its value is “irreversible”.

Q: With `CC1(C)C2CCC1(C)C(OC(=O)CBr)C2` (stereo not drawn) [MCI13E] as the molecule, how does the “mode of inhibition of full-length RPA after dialysis” value [4] read?
A: The value was “inhibition was not reversed by dialysis”.

Q: And the “inhibition of DBD-A/B DNA binding (result in words)” value (RPA DBD-A/B [5]; EMSA)?
A: The value was “lack of inhibition”.

Q: And the “effect on EcSSB binding to ssDNA” value (E. coli SSB)?
A: The value was “unaffected”.

Q: What about the IC50 [6] of the same molecule?
A: Its IC50 is 16.1 µM.

Q: Which “inhibition of DBD-A/B DNA binding (result in words)” value (RPA DBD-A/B [5]; EMSA) does the source give for `CC1(C)C2CCC1(C)C(OC(=O)CI)C2` (stereo not drawn) [MCI13F] here?
A: The value was “lack of inhibition”.

Q: What about the “effect on EcSSB binding to ssDNA” value (E. coli SSB) of the same molecule?
A: The value was “unaffected”.

Q: And the IC50 [6]?
A: Its IC50 is 10.1 µM.

Q: Which results are given for `CCOc1ccc2cc(C3CC(c4ccc(Br)cc4)=NN3C(=O)CCC(=O)O)c(Cl)nc2c1` (stereo not drawn) [TDRL-505]?
A: IC50 (RPA DBD-A/B [5]; EMSA, 125 nM DBD-A/B, 12.5 nM DNA, TDRL-505 10–100 μM, read-out: half-maximal inhibition of DBD-A/B DNA binding activity): ~40 µM; half-maximal inhibition of DBD-A/B relative to intact heterotrimer (RPA DBD-A/B [5]; compared with heterotrimer value of ref 12): about twice; inhibition at 100 µM (RPA DBD-A/B [5]; highest concentration tested (100 μM), read-out: inhibition of RPA DBD-A/B DNA binding): ~90%; decrease in EcSSB binding to ssDNA (E. coli SSB; 100 μM, highest concentration tested): ~ 20%; effect on EcSSB binding to ssDNA (result in words) (E. coli SSB): ineffective; inhibition of RPA DNA binding [7]: ~90%; IC50 [8]: 15.7 ± 1.6 µM; synergy with etoposide [9]: synergize; synergy with cisplatin ([9]; human lung cancer cell model): synergize

B1: 34-mer (ssDNA)
DNA: CTAGAAAGGGGGAAGAAAGGGAAGAGGCCAGAGA
Q: With B1 as the molecule, how does the “apparent K (half saturation)” value (RPA DBD-A/B [10]) read?
A: Its value is ~125 nM.
